This note sets out measurements from patent publication US11826402B2, “Combination therapy involving antibodies against claudin 18.2 for treatment of metastatic pancreatic adenocarcinoma” (Astellas Pharma Inc., priority 2013, dated 2023).

One test deals with Panc05.04. The test is described as follows: IMAB362-mediated ADCC assay (luciferase, human PBMCs, E:T 40:1). The test is classed as cell-based. The method, then: For ADCC assays pancreatic cancer cell lines were transiently transfected with luciferase RNA. This luciferase RNA (pST1-luc2mut-2 hBgUTR-A121-EciI vector (pST1-109)) was produced with an ARCA cap and dissolved in H2O. RNA was stored in 22 μl aliquots at −80° C. For all pancreas cell lines the optimal electroporation conditions were determined resulting in highest transfection rates and viability of the cells. In each assay cells were detached with PBS/5 mM EDTA and 2.5×10^6 cells dissolved in 250 μl X-Vivo were mixed in ice-cold cuvettes with 10 μg RNA. Cells were immediately electroporated (GenePulser Xcell, Biorad) and resuspended in pre-warmed Assay-medium adjusting the cells to 5×10^5 cells/ml. Tested electroporation conditions were for all cell lines: • EP1: 250 V, 475 μF • EP2: 200 V, 300 μF • EP3: 150 V, 300 μF • EP4: 200 V, 400 μF • EP5: 250 V, 950 μF • Control: 0 V, 0 μF
The viability of the cells was determined directly after electroporation using CASY or by staining cells with Trypan blue and determining the percentage of dead cells in the Neubauer chamber. Cells were seeded in quadruplicates in white 96-well plates (2.5×10^4 cells/well) and incubated for 24 h. Subsequently, luciferase activity was measured in a luminometer (Tecan Infinite200) after addition of luciferin mix for 90 min. Transfection was successful and consequently ADCC measurable, if RLU values >1.000 were obtained.
Pancreatic cancer target cells were seeded two days in advance in flasks to obtain 80-90% confluent cultures on the day ADCC started. […] NUGC-4 sub 10cH11 subE10 Luci #2 cells (8000 cells/well) were seeded in addition as positive controls in all assays. Cells were cultivated for 4-6 h before addition of antibody and purified PBMCs. PBMCs were prepared from fresh human buffy coat obtained from healthy donors. About 3× 20-25 ml blood was diluted (1:2) with PBS and carefully layered on 4×15 ml Ficol-Paque Plus (GE Healthcare) in 50 ml Falcon tubes. Gradients were centrifuged (25 min, 700 g). After centrifugation, peripheral blood mononuclear cells (PBMC) were collected from the interphase, washed in PBS/2 mM EDTA, centrifuged (5 min, 468 g), again resuspended in PBS/2 mM EDTA and centrifuged (10 min, 208 g) to remove the platelets. The pellets were resuspended in 50 ml PBS/2 mM EDTA and cells were counted. PBMCs were centrifuged (5 min, 468 g) and resuspended in X-Vivo-15 culture medium at a concentration of 1.6×10^7 cells/ml for addition to the pancreas cells and 1.28×10^7 cells/ml for addition to the NUGC-4 sub 10cH11 subE10 Luci #2 cells.
Of each dilution 25 μl was added in quadruplicates to the target cells. PBS without antibodies was added in the medium and lysis control wells. Subsequently, 25 μl PBMCs were added to each well (E:T ratio=40:1) and plates were incubated for 24 h±1 h at 37° C., 5% CO2.
The next day, 10 μl 8% Triton X100/PBS solution was added to the lysis control wells and 10 μl PBS in all other wells. Finally, 50 μl freshly prepared luciferin stock solution was added (160 mM HEPES, 1×PBS, 3.84 mg/ml D-Luciferin (BD Biosciences)) to each well and plates were incubated for 80 min at RT in the dark. Luminescence resulting from the oxidation of […] by the luciferase of viable cells was measured using a microplate-reader (Infinite200, Tecan, Switzerland). Percentage of cellular cytotoxicity was calculated using the following formula: Specific killing (%)=100−[(RLUsample−RLUtriton)/(RLUmedium ctrl−RLUtriton)×100] […]

The subject of another test is NUGC-4. The test is described as follows: Apoptosis by cross-linking of IMAB362 (TUNEL assay). The test is classed as cell-based, human. Particulars: within 18-42 hours. As for the experimental part: (§1) The apoptotic assay based on DNA fragmentation was performed as follows. Treated cells (adherent and floating) were fixed in 70% icecold EtOH overnight. After washing, 10^6 fixed cells were incubated with terminal deoxynucleotidyl transferase enzyme (TdT) and FITC-dUTP for 90 min at 37° C. to label DNA breaks. Cells were rinsed, incubated in RNase A/propidium iodide in the dark for 30 min at room temperature to stain total DNA, then analyzed by flowvcytometry. Cell doublets and clumps were eliminated from the analysis by gating.
(§2) The magnitude of apoptosis correlates with the dose of the antibody and level of target expression on the cancer cell. Treatment with gemcitabine leads to cell cycle arrest of tumor cells followed by apoptotic cell death.

The next test relates to KATO-III. Described as above. Particulars: within 18-42 hours. The test is classed as cell-based, human. The method, then: as §1, §2
A further test concerns CFPAC1. Briefly: IMAB362-mediated ADCC assay. The test is classed as cell-based, human. As to conditions: at least 2 donors.
The next test has as its system DANG xenografts. The test is described as follows: Subcutaneous DANG xenograft treatment. The test is classed as in vivo, mice. As to conditions: low CLDN18.2 expressing DANG xenografts.
Test [1] deals with LVT pancreatic cancer cell lines ectopically expressing CLDN18.2. The test is described as follows: IF staining with IMAB362 under native conditions. The test is classed as binding, human. As to conditions: 8 LVT pancreatic cancer cell lines. An excerpt:
IF analysis of pancreatic cancer cell lines (FIGS. 16A, 16B, 16D and 16E), lentivirally transduced pancreas cell lines (FIGS. 16G-16L) and KATO-III gastric cancer control cells (FIGS. 16C and 16F) expressing CLDN18.2. […] DAPI was used to stain the nuclei. Exposure times are indicated in each panel. FIG. 16G: BxPC3-LVT; FIG. 16H: CAPAN1-LVT; FIG. 16I: DANG-LVT; FIG. 16J: MiaPaCa2-LVT; FIG. 16K: Patu8902-LVT; FIG. 16L: Suit2-LVT.

As to “IMAB362: chimeric IgG1 antibody directed against CLDN18.2, developed by Ganymed Pharmaceuticals AG”, the “ADCC killing by IMAB362 and PBMCs” value in the test on Panc05.04 (Panc05.04) is recorded as “efficiently killed”. Besides, the “EC50 of effector cell-dependent killing (ADCC)” value in the test with Panc05.04 (Panc05.04 (pooled with DANG), PBMCs of different donors, E:T 40:1) was in the range of 0.1 to 38 mg/L. The “maximum killing rate (ADCC)” value in the test with Panc05.04 (Panc05.04, at highest antibody concentrations) is given as about 50%. In addition, the “ADCC EC50” value in the test with Panc05.04 (Panc05.04, at least 2 donors) is 5.7288 ± 4.4351 mg/L; in the test with CFPAC1 it was “n.m”. Besides, the “ADCC Max. lysis” value in the test on Panc05.04 (Panc05.04, at least 2 donors) is listed as 67.1 ± 6.8%; in the test with CFPAC1, 0-1.5%. Besides, the induction of apoptosis result in the test on NUGC-4 and in the test with KATO-III was “induces direct apoptosis” each time. The “growth inhibition compared to high CLDN18.2 expressing xenograft tumors” value in the test on DANG xenografts is recorded as “reduced”. For the same substance, the “membrane staining (IF, native staining protocol)” value in test [1] is “clear membrane staining”.
